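Assay format: 96-well plates, 48-hour exposure. GI50 is the concentration that inhibits growth by half. TGI denotes the concentration required for complete inhibition of growth.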

The values below come from PubChem BioAssay (NCI).

Common to all, as to assay: NCI-60 cell line screen, 48 h
Experiment [1] deals with ACHN renal.
The subject of experiment [2] is CAKI-1 renal.
Experiment [3] relates to CCRF-CEM leukemia.
Experiment [4] deals with K-562 leukemia.
The subject of experiment [5] is LOX IMVI melanoma.
For experiment [6], the system named is NCI/ADR-RES ovarian.
The test system of experiment [7] is OVCAR-5 ovarian.
Experiment [8] concerns SNB-19 CNS.
Experiment [9] deals with SR leukemia.
For experiment [10], the system named is T-47D breast.

In the case of `O=C(/C=C/CN1CCCCC1)Nc1cc2c(Nc3ccc(F)c(Cl)c3F)ncnc2cc1OCCOC(F)F`, the GI50 in experiment [1] is < 0.01 µM; in experiment [2], < 0.0151 µM; in [3] it was 2.42 µM; in [4] it was 0.715 µM; in experiment [5] it was 1.22 µM; in experiment [6], 0.446 µM. Moreover, the GI50 is 0.406 µM in experiment [7], 1.94 µM in experiment [8], 0.598 µM in experiment [9] and 0.0535 µM in [10]. Besides, the TGI worked out at 1.55 µM in experiment [1]; 1.44 µM in experiment [2]; 10.7 µM in experiment [3]; 8.12 µM in experiment [4]; 2.59 µM in experiment [5]; 3.82 µM in experiment [6]. In addition, the TGI in [7] was 13.6 µM; in [8], 13.5 µM; in experiment [9], 4.24 µM; in experiment [10] it was 1.37 µM.
Regarding `CN(C)CCCn1c2c(c3ccc([N+](=O)[O-])cc3c1=O)C(=O)c1ccccc1-2`, the GI50 was 4.54 µM in [1]; 3.07 µM in [2]; 3.85 µM in [3]; 6.05 µM in experiment [4]; 2.87 µM in [5]; 7.22 µM in experiment [6]. Further, the GI50 in experiment [7] was 15.3 µM; in experiment [8], 19.1 µM; in [9], 1.98 µM; in experiment [10], 24.1 µM. Further, the TGI in [1] is 17.8 µM; in [2], 19.7 µM; in [3] it was 59 µM; in experiment [4], > 100 µM; in experiment [5] it was 13.3 µM; in experiment [6], 34.5 µM. The TGI in experiment [7] is 49 µM; in [8], > 100 µM; in experiment [9] it was > 100 µM; in experiment [10], > 100 µM.
Consider `CCOC(=O)C(Cc1ccc(N(CCCl)CCCl)cc1)NC(=O)C(CC(C)C)NC(C)=O` (stereo not given), for which the GI50 is 0.173 µM in [1]; 0.32 µM in experiment [2]; 0.232 µM in experiment [3]; 1.19 µM in [4]; 0.296 µM in experiment [5]; 2.14 µM in [6]. In addition, the GI50 was 3.18 µM in experiment [7], 3.55 µM in experiment [8], 0.0344 µM in experiment [9] and 0.642 µM in [10]. Besides, the TGI in experiment [1] came out at 1.42 µM; in experiment [2] it was 2.32 µM; in [3], 3.31 µM; in [4], 7.96 µM; in experiment [5], 2.23 µM; in experiment [6], 16.9 µM. For the same molecule, the TGI in experiment [7] was 12 µM; in experiment [8], 16.7 µM; in [9] it was 6.89 µM; in experiment [10], 3.48 µM.
With `COc1cc2c(cc1Nc1nc(Nc3ccsc3C(N)=O)c3cc[nH]c3n1)N(C(=O)CN(C)C)CCC2`, the GI50 in [1] is 2.67 µM; in experiment [2] it was 3.64 µM; in [3], 0.162 µM; in experiment [4], 0.875 µM; in experiment [5] it was 0.58 µM; in experiment [6] it was 4.75 µM. In addition, the GI50 in experiment [7] is 0.109 µM; in experiment [8], 2.58 µM; in experiment [9] it was 0.0123 µM; in experiment [10], 3.87 µM. Moreover, the TGI in [1] was 6.06 µM; in experiment [2], 10.2 µM; in [3] it was 9.66 µM; in experiment [4] it was 13.7 µM; in experiment [5], 3.66 µM; in experiment [6], > 25 µM. In addition, the TGI was 3.66 µM in experiment [7], > 25 µM in [8], 3.44 µM in experiment [9] and 9.65 µM in [10].
On to `CCOC(=O)c1ccccc1NC(c1ccccc1)c1ccc2cccnc2c1O` (stereo not given), for which the GI50 in experiment [1] was 3.07 µM; in experiment [2], 3.05 µM; in experiment [3] it was 2.32 µM; in experiment [4], 3.34 µM; in [5], 2.45 µM; in experiment [6] it was 2.78 µM. The GI50 in [7] is 8.64 µM; in experiment [8], 2.83 µM; in experiment [9], 2.02 µM; in experiment [10], 4.22 µM. Further, the TGI in [1] was > 100 µM; in [2], > 100 µM; in experiment [3], > 100 µM; in experiment [4], > 100 µM; in experiment [5] it was 11 µM; in experiment [6], 21.4 µM. Also, the TGI in experiment [7] was > 100 µM; in [8], > 100 µM; in experiment [9], 10.3 µM; in experiment [10], > 100 µM.
